Reference: patent publication US11382328B2, “Rapid drug discovery methods for pathogen inactivation” (priority 2019, dated 2022)

Test system: E. coli strain W3110
Assay: Synergy assays: Biolog chemical sensitivity panels with Group IB metal, coefficient of drug interaction (CDI) from relative growth
Assay type: cell-based
Settings: for CDI (coefficient of drug interaction), copper mixed with biocide: Copper (mM) section; for CDI (coefficient of drug interaction), gold + biocide: Gold (μM)
[1] = 1st of 3 copper concentrations (value not shown), 1st of four biocide concentrations
[2] = 1st of 3 copper concentrations (value not shown), 3rd of four biocide concentrations
[3] = 1st of 3 copper concentrations (value not shown), 4th of four biocide concentrations
[4] = 2nd of 3 copper concentrations (value not shown), 1st of four biocide concentrations
[5] = 2nd of 3 copper concentrations (value not shown), 2nd of four biocide concentrations
[6] = 2nd of 3 copper concentrations (value not shown), 3rd of four biocide concentrations
[7] = 2nd of 3 copper concentrations (value not shown), 4th of four biocide concentrations
[8] = 3rd of 3 copper concentrations (value not shown), 1st of four biocide concentrations
[9] = 3rd of 3 copper concentrations (value not shown), 2nd of four biocide concentrations
[10] = 3rd of 3 copper concentrations (value not shown), 3rd of four biocide concentrations
[11] = 3rd of 3 copper concentrations (value not shown), 4th of four biocide concentrations
[12] = Gold section of Table 5, first of three gold concentrations (μM, value not given), biocide concentration 2 of 4
[13] = Gold section of Table 5, first of three gold concentrations (μM, value not given), biocide concentration 3 of 4
[14] = Gold section of Table 5, first of three gold concentrations (μM, value not given), biocide concentration 4 of 4
[15] = Gold section of Table 5, second of three gold concentrations (μM, value not given), biocide concentration 1 of 4
[16] = Gold section of Table 5, second of three gold concentrations (μM, value not given), biocide concentration 2 of 4
[17] = Gold section of Table 5, second of three gold concentrations (μM, value not given), biocide concentration 3 of 4
[18] = Gold section of Table 5, second of three gold concentrations (μM, value not given), biocide concentration 4 of 4
[19] = Gold section of Table 5, third of three gold concentrations (μM, value not given), biocide concentration 1 of 4
[20] = Gold section of Table 5, third of three gold concentrations (μM, value not given), biocide concentration 2 of 4
[21] = Gold section of Table 5, third of three gold concentrations (μM, value not given), biocide concentration 3 of 4
[22] = Gold section of Table 5, third of three gold concentrations (μM, value not given), biocide concentration 4 of 4
[23] = Silver 0.5 μM, biocide concentration 1 of 4
[24] = Silver 0.5 μM, biocide concentration 2 of 4
[25] = Silver 0.5 μM, biocide concentration 3 of 4
[26] = Silver 0.5 μM, biocide concentration 4 of 4
[27] = Silver 1.0 μM, biocide concentration 2 of 4
[28] = Silver 1.0 μM, biocide concentration 3 of 4
[29] = Silver 1.0 μM, biocide concentration 4 of 4
[30] = Silver 5.0 μM, biocide concentration 1 of 4
[31] = Silver 5.0 μM, biocide concentration 2 of 4
[32] = Silver 5.0 μM, biocide concentration 3 of 4
[33] = Silver 5.0 μM, biocide concentration 4 of 4
[34] = Gold section of Table 5, first of three gold concentrations (μM, value not given), biocide concentration 1 of 4

CN[C@H]1C[C@@H](N)[C@H](O)[C@@H](O[C@@H]2O[C@H](CO)[C@H](O)[C@@H]3OC4(O[C@H]23)O[C@H]([C@@H](N)CO)[C@H](O)[C@H](O)[C@H]4O)[C@@H]1O (stereo partly drawn) [hygromycin B]
CDI (coefficient of drug interaction), copper mixed with biocide [1]: 1.19 | CDI (coefficient of drug interaction), copper mixed with biocide [2]: 0.89 | CDI (coefficient of drug interaction), copper mixed with biocide [3]: 0.61 | CDI (coefficient of drug interaction), copper mixed with biocide [4]: 0.80 | CDI (coefficient of drug interaction), copper mixed with biocide [5]: 0.81 | CDI (coefficient of drug interaction), copper mixed with biocide [6]: 1.02 | CDI (coefficient of drug interaction), copper mixed with biocide [7]: Tox | CDI (coefficient of drug interaction), copper mixed with biocide [8]: 0.91 | CDI (coefficient of drug interaction), copper mixed with biocide [9]: 0.79 | CDI (coefficient of drug interaction), copper mixed with biocide [10]: 0.77 | CDI (coefficient of drug interaction), copper mixed with biocide [11]: 0.94 | CDI (coefficient of drug interaction) [12]: 0.82 | CDI (coefficient of drug interaction) [13]: Tox | CDI (coefficient of drug interaction) [14]: Tox | CDI (coefficient of drug interaction) [15]: 0.96 | CDI (coefficient of drug interaction) [16]: 1.13 | CDI (coefficient of drug interaction) [17]: Tox | CDI (coefficient of drug interaction) [18]: Tox | CDI (coefficient of drug interaction) [19]: 0.97 | CDI (coefficient of drug interaction) [20]: 1.27 | CDI (coefficient of drug interaction) [21]: Tox | CDI (coefficient of drug interaction) [22]: Tox | CDI [23]: 1.26 | CDI [24]: 2.06 | CDI [25]: Tox | CDI [26]: Tox | CDI (Silver 1.0 μM, biocide concentration 1 of 4): 0.63 | CDI [27]: 1.47 | CDI [28]: Tox | CDI [29]: Tox | CDI [30]: 0.03 | CDI [31]: 0.37 | CDI [32]: Tox | CDI [33]: Tox

O=C(O)CI [lodoacetate]
CDI (coefficient of drug interaction) [34]: 0.77 | CDI (coefficient of drug interaction) [12]: Tox | CDI (coefficient of drug interaction) [13]: Tox | CDI (coefficient of drug interaction) [14]: Tox | CDI (coefficient of drug interaction) [15]: 1.00 | CDI (coefficient of drug interaction) [16]: Tox | CDI (coefficient of drug interaction) [17]: Tox | CDI (coefficient of drug interaction) [18]: Tox | CDI (coefficient of drug interaction) [19]: 0.88 | CDI (coefficient of drug interaction) [20]: Tox | CDI (coefficient of drug interaction) [21]: Tox | CDI (coefficient of drug interaction) [22]: Tox

O=c1ccc2ccccc2o1 [coumarin]
CDI (coefficient of drug interaction) (Gold 50 μM, biocide concentration 4 of 4, E. coli): Tox

NC(CCC(=O)NO)C(=O)O [L-glutamic-γ-hydroxamate]
CDI (coefficient of drug interaction) (Copper (mM), 1st of 3 copper concentrations (head line not shown), biocide concentration 1 of 4, E. coli): 1.14 | CDI (coefficient of drug interaction) (Copper (mM), 1st of 3 copper concentrations (head line not shown), biocide concentration 2 of 4, E. coli): 1.16 | CDI (coefficient of drug interaction) (Copper (mM), 1st of 3 copper concentrations (head line not shown), biocide concentration 3 of 4, E. coli): 0.97 | CDI (coefficient of drug interaction) (Copper (mM), 1st of 3 copper concentrations (head line not shown), biocide concentration 4 of 4, E. coli): 1.01 | CDI (coefficient of drug interaction) (Copper (mM), 2nd of 3 copper concentrations (head line not shown), biocide concentration 1 of 4, E. coli): 0.87 | CDI (coefficient of drug interaction) (Copper (mM), 2nd of 3 copper concentrations (head line not shown), biocide concentration 2 of 4, E. coli): 0.90 | CDI (coefficient of drug interaction) (Copper (mM), 2nd of 3 copper concentrations (head line not shown), biocide concentration 3 of 4, E. coli): 0.92 | CDI (coefficient of drug interaction) (Copper (mM), 2nd of 3 copper concentrations (head line not shown), biocide concentration 4 of 4, E. coli): 0.96 | CDI (coefficient of drug interaction) (Copper (mM), 3rd of 3 copper concentrations (head line not shown), biocide concentration 1 of 4, E. coli): 0.75 | CDI (coefficient of drug interaction) (Copper (mM), 3rd of 3 copper concentrations (head line not shown), biocide concentration 2 of 4, E. coli): 0.80 | CDI (coefficient of drug interaction) (Copper (mM), 3rd of 3 copper concentrations (head line not shown), biocide concentration 3 of 4, E. coli): 0.69 | CDI (coefficient of drug interaction) (Copper (mM), 3rd of 3 copper concentrations (head line not shown), biocide concentration 4 of 4, E. coli): 0.74 | CDI (coefficient of drug interaction), gold + biocide (first of 3 gold concentrations, biocide concentration 1 of 4): 1.03 | CDI (coefficient of drug interaction), gold + biocide (first of 3 gold concentrations, biocide concentration 2 of 4): 1.03 | CDI (coefficient of drug interaction), gold + biocide (first of 3 gold concentrations, biocide concentration 3 of 4): 1.08 | CDI (coefficient of drug interaction), gold + biocide (first of 3 gold concentrations, biocide concentration 4 of 4): 1.08 | CDI (coefficient of drug interaction), gold + biocide (second of 3 gold concentrations, biocide concentration 1 of 4): 1.02 | CDI (coefficient of drug interaction), gold + biocide (second of 3 gold concentrations, biocide concentration 2 of 4): 1.01 | CDI (coefficient of drug interaction), gold + biocide (second of 3 gold concentrations, biocide concentration 3 of 4): 1.09 | CDI (coefficient of drug interaction), gold + biocide (second of 3 gold concentrations, biocide concentration 4 of 4): 1.04 | CDI (coefficient of drug interaction), gold + biocide (third of 3 gold concentrations, biocide concentration 1 of 4): 1.01 | CDI (coefficient of drug interaction), gold + biocide (third of 3 gold concentrations, biocide concentration 2 of 4): 1.01 | CDI (coefficient of drug interaction), gold + biocide (third of 3 gold concentrations, biocide concentration 3 of 4): 1.02 | CDI (coefficient of drug interaction), gold + biocide (third of 3 gold concentrations, biocide concentration 4 of 4): 1.01 | CDI [23]: 0.93 | CDI [24]: 0.75 | CDI [25]: 0.61 | CDI [26]: 0.49 | CDI [27]: 0.97 | CDI [28]: 0.93 | CDI [29]: 0.71 | CDI [30]: 1.00 | CDI [31]: 0.85 | CDI [32]: 0.71 | CDI [33]: 0.34

CCCCCCCCCCCC[N+](C)(C)CCCS(=O)(=O)O [lauryl sulfobetaine]
CDI (coefficient of drug interaction), copper mixed with biocide [1]: 0.96 | CDI (coefficient of drug interaction), copper mixed with biocide (1st of 3 copper concentrations (value not shown), 2nd of four biocide concentrations): 1.18 | CDI (coefficient of drug interaction), copper mixed with biocide [2]: 0.80 | CDI (coefficient of drug interaction), copper mixed with biocide [3]: 0.21 | CDI (coefficient of drug interaction), copper mixed with biocide [4]: 0.60 | CDI (coefficient of drug interaction), copper mixed with biocide [5]: 1.39 | CDI (coefficient of drug interaction), copper mixed with biocide [6]: 0.72 | CDI (coefficient of drug interaction), copper mixed with biocide [7]: 0.48 | CDI (coefficient of drug interaction), copper mixed with biocide [8]: 0.48 | CDI (coefficient of drug interaction), copper mixed with biocide [9]: 0.80 | CDI (coefficient of drug interaction), copper mixed with biocide [10]: 0.34 | CDI (coefficient of drug interaction), copper mixed with biocide [11]: 0.07 | CDI (coefficient of drug interaction) [34]: 0.86 | CDI (coefficient of drug interaction) [12]: 1.26 | CDI (coefficient of drug interaction) [13]: 0.86 | CDI (coefficient of drug interaction) [14]: 0.99 | CDI (coefficient of drug interaction) [15]: 0.96 | CDI (coefficient of drug interaction) [16]: 0.87 | CDI (coefficient of drug interaction) [17]: 1.00 | CDI (coefficient of drug interaction) [18]: 1.09 | CDI (coefficient of drug interaction) [19]: 1.13 | CDI (coefficient of drug interaction) [20]: 1.04 | CDI (coefficient of drug interaction) [21]: 0.96 | CDI (coefficient of drug interaction), silver + biocide (Silver 0.5 μM, 1st of four biocide concentrations, E. coli): 0.83 | CDI (coefficient of drug interaction), silver + biocide (Silver 0.5 μM, 2nd of four biocide concentrations, E. coli): 0.56 | CDI (coefficient of drug interaction), silver + biocide (Silver 0.5 μM, 3rd of four biocide concentrations, E. coli): Tox | CDI (coefficient of drug interaction), silver + biocide (Silver 0.5 μM, 4th of four biocide concentrations, E. coli): Tox | CDI (coefficient of drug interaction), silver + biocide (Silver 1.0 μM, 1st of four biocide concentrations, E. coli): 0.91 | CDI (coefficient of drug interaction), silver + biocide (Silver 1.0 μM, 2nd of four biocide concentrations, E. coli): 0.79 | CDI (coefficient of drug interaction), silver + biocide (Silver 1.0 μM, 3rd of four biocide concentrations, E. coli): Tox | CDI (coefficient of drug interaction), silver + biocide (Silver 1.0 μM, 4th of four biocide concentrations, E. coli): Tox | CDI (coefficient of drug interaction), silver + biocide (Silver 5.0 μM, 1st of four biocide concentrations, E. coli): 1.42 | CDI (coefficient of drug interaction), silver + biocide (Silver 5.0 μM, 2nd of four biocide concentrations, E. coli): 1.41 | CDI (coefficient of drug interaction), silver + biocide (Silver 5.0 μM, 3rd of four biocide concentrations, E. coli): Tox | CDI (coefficient of drug interaction), silver + biocide (Silver 5.0 μM, 4th of four biocide concentrations, E. coli): Tox
